# Results published in ChEMBL document CHEMBL1124940, “N-[(arylmethoxy)phenyl] carboxylic acids, hydroxamic acids, tetrazoles, and sulfonyl carboxamides. Potent orally active leukotriene D4 antagonists of novel structure” (J Med Chem, 1990).
# Tests used:
# Cavia porcellus [1] = assay: Inhibition of LTD4-induced broncho constriction in Guinea pig after intraduodenal administration of a dose of 3 mg/kg; format: functional
# Cavia porcellus [2] = assay: Inhibition of LTD4-induced broncho constriction in Guinea pig, compound injected intraduodenally at a dose of 25 mg/kg; format: functional; conditions: route intraduodenal
# Cavia porcellus [3] = assay: Inhibition of LTD4-induced bronchoconstriction in Guinea pig after intragastrical administration of dose of 3 mg/kg; format: functional; conditions: po, route intragastric
# Cavia porcellus [4] = assay: Inhibition of ovalbumin induced bronchoconstriction in Guinea pig, compound injected intraduodenally at a dose of 10 mg/kg; format: functional; conditions: route intraduodenal
# Cavia porcellus [5] = assay: Inhibition of ovalbumin induced bronchoconstriction in Guinea pig, compound injected intraduodenally at a dose of 25 mg/kg; format: functional; conditions: route intraduodenal
# Cavia porcellus [6] = assay: Inhibition of ovalbumin induced bronchoconstriction in Guinea pig, compound injected intragastrically, dose is 10 mg/kg; format: functional; conditions: po, route intragastric
# Cavia porcellus [7] = assay: Inhibition of ovalbumin induced bronchoconstriction in Guinea pig, compound injected intragastrically, dose is 25 mg/kg; format: functional; conditions: po, route intragastric
# Cavia porcellus [8] = assay: Inhibition of LTD4-induced bronchoconstriction in Guinea pig after intragastrical administration of dose of 25 mg/kg; format: functional; conditions: po, route intragastric
# Cavia porcellus [9] = assay: Dissociation constant was determined in vitro after intraduodenal administration in isolated guinea pig trachea; format: ADME, organism-based; conditions: in vivo, other
# Cavia porcellus [10] = assay: Inhibition of LTD4-induced broncho constriction in Guinea pig after intragastrical administration of a dose of 25 mg/kg; format: functional; conditions: po, route intragastric
# Cavia porcellus [11] = assay: In vitro inhibition of LTD4-induced bronchoconstriction into isolated guinea pig trachea by injecting intragastrically; format: functional; conditions: po
# Cavia porcellus [12] = assay: Inhibition of ovalbumin-induced broncho constriction in Guinea pig after intraduodenal administration of a dose of 25 mg/kg; format: functional
# Cavia porcellus [13] = assay: Tested for the inhibition of LTD4-induced bronchoconstriction in Guinea pig, compound injected intraduodenally, dose of 3 mg/kg; format: functional; conditions: route intraduodenal
# Cavia porcellus [14] = assay: Tested for the inhibition of LTD4-induced bronchoconstriction in Guinea pig, compound injected intragastrically at dose of 3 mg/kg.; format: functional; conditions: po, route intragastric
# Cavia porcellus [15] = assay: Tested for the inhibition of ovalbumin induced bronchoconstriction in Guinea pig, compound injected intragastrically at dose of 10 mg/kg.; format: functional; conditions: po, route intragastric
# Cavia porcellus [16] = assay: Tested for the inhibition of ovalbumin- induced bronchoconstriction in Guinea pig, compound injected intragastrically at dose of 25 mg/kg.; format: functional; conditions: po, route intragastric
# Cavia porcellus [17] = organism: Cavia porcellus; assay: Dose of antagonist that produces 50% inhibition of ovalbumin-induced bronchoconstriction.; format: functional
# [18] = biological target: T1, Polyunsaturated fatty acid 5-lipoxygenase (Rattus norvegicus, UniProt P12527); assay: Concentration that produces 50% inhibition of A-23187-stimulated radiolabeled 5-HETE and TXB2 synthesis by PMN 5-lipoxygenase.
# T1 sequence (P12527 whole entry): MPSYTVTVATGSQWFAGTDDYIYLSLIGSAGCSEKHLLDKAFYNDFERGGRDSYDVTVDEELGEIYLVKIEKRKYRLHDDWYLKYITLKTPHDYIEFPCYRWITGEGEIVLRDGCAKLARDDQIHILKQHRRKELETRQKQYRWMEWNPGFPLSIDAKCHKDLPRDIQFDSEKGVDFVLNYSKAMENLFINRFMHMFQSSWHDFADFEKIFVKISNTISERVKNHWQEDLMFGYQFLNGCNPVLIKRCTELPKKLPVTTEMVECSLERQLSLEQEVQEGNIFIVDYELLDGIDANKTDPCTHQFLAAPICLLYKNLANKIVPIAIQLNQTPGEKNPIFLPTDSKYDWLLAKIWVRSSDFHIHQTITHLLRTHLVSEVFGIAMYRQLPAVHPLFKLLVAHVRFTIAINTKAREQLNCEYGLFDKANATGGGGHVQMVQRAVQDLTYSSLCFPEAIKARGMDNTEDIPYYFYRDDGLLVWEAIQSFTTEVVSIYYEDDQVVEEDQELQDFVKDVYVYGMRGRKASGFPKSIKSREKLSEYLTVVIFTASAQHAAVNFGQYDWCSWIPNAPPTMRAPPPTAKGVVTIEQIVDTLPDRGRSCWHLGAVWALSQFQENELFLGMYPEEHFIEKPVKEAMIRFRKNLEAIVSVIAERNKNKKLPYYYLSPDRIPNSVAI
# Cyclooxygenase = biological target: T2, Cyclooxygenase (Rattus norvegicus, UniProt P35355+Q63921); assay: Concentration that produces 50% inhibition of A-23187-stimulated radiolabeled 5-HETE and TXB2 synthesis by Prostaglandin G/H synthase; format: protein assay
# T2 sequence (P35355 whole entry): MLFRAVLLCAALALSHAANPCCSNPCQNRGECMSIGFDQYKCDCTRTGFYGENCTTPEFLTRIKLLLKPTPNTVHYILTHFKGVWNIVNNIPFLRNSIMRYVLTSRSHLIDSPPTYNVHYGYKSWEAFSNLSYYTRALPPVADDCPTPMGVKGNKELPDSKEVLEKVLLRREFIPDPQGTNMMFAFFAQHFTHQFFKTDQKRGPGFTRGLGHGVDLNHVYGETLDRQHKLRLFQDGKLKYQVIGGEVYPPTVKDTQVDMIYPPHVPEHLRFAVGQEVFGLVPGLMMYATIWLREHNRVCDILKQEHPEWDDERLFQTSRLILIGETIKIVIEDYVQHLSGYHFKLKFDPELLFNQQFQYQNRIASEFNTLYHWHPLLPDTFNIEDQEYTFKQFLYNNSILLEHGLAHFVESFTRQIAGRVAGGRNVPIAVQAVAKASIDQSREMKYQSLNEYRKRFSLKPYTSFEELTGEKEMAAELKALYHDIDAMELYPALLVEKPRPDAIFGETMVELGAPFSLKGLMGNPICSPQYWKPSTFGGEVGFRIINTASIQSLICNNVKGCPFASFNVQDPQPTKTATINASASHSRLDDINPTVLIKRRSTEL
# T2 sequence (Q63921 whole entry): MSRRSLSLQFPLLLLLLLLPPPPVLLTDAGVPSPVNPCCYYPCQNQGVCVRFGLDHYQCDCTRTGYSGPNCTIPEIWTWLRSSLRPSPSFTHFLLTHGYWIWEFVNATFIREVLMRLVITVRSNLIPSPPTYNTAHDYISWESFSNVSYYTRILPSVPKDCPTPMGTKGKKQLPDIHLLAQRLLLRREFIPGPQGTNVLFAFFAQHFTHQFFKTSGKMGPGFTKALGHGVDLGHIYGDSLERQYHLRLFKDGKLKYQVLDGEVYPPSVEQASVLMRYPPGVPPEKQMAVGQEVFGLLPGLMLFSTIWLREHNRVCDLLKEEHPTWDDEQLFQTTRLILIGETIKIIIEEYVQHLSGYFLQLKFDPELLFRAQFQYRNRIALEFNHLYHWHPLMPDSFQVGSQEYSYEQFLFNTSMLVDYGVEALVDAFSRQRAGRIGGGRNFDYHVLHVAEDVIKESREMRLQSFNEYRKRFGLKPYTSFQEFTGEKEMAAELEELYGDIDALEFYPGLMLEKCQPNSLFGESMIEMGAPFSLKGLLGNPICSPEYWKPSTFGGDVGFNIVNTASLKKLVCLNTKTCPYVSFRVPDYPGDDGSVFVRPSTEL
# Rattus norvegicus [19] = assay: Antiinflammatory effect was studied in a rat carrageenan paw edema (CE) assay at 50 mg/kg; format: functional
# Cavia porcellus [20] = assay: Inhibition of LTD4-induced broncho constriction in Guinea pig after intraduodenal administration of a dose of 25 mg/kg; format: functional
# Cavia porcellus [21] = assay: Tested for the inhibition of LTD4-induced bronchoconstriction in Guinea pig, compound injected intragastrically at dose of 3 mg/kg; format: functional; conditions: po, route intragastric
# Cavia porcellus [22] = assay: Tested for the inhibition of LTD4-induced bronchoconstriction in Guinea pig, injected intraduodenally, dose is 10 mg/kg; format: functional; conditions: route intraduodenal
# Cavia porcellus [23] = assay: Inhibition of ovalbumin-induced broncho constriction in Guinea pig after intraduodenal administration of a dose of 10 mg/kg; format: functional
# Cavia porcellus [24] = assay: Tested for the inhibition of LTD4-induced broncho constriction in Guinea pig, injected intraduodenally at a dose of 25 mg/kg; format: functional; conditions: route intraduodenal
# Cavia porcellus [25] = assay: Tested for the inhibition of LTD4-induced bronchoconstriction in Guinea pig, injected intragastrically, dose is 3 mg/kg.; format: functional; conditions: po, route intragastric
# Cavia porcellus [26] = assay: -log dissociation constant was determined In vitro in isolated guinea pig trachea after intraduodenal administration (before 10 min); format: ADME, organism-based; conditions: in vivo, other
# Cavia porcellus [27] = assay: In vitro LTD4-induced bronchoconstriction in isolated guinea pig trachea by injecting intraduodenally; format: functional; conditions: intraduodenal
# Cavia porcellus [28] = assay: In vitro inhibition of LTD4-induced bronchoconstriction after intragastrical administration 120 min before agonist into isolated guinea pig trachea; format: functional; conditions: po
# Cavia porcellus [29] = assay: In vitro inhibition of ovalbumin-induced bronchoconstriction after intragastrical administration 120 min before agonist into isolated guinea pig trachea; format: functional; conditions: po
# Cavia porcellus [30] = assay: In vitro inhibition of ovalbumin-induced bronchoconstriction in isolated guinea pig trachea by injecting intraduodenally; format: functional; conditions: intraduodenal
# Cavia porcellus [31] = assay: Inhibition of LTD4-induced broncho constriction in Guinea pig after intragastrical administration of a dose of 3 mg/kg; format: functional; conditions: po, route intragastric
# Cavia porcellus [32] = assay: Tested for the inhibition of ovalbumin- induced bronchoconstriction in Guinea pig, injected intragastrically, dose of 25 mg/kg; format: functional; conditions: po, route intragastric
# Cavia porcellus [33] = assay: Tested for the inhibition of LTD4-induced bronchoconstriction in Guinea pig, injected intraduodenally, dose is 3 mg/kg; format: functional; conditions: route intraduodenal
# Cavia porcellus [34] = assay: Tested for the inhibition of ovalbumin- induced bronchoconstriction in Guinea pig, injected intragastrically, dose of 10 mg/kg; format: functional; conditions: po, route intragastric
# Cavia porcellus [35] = assay: In vitro inhibition of LTD4-induced bronchoconstriction into isolated guinea pig trachea by injecting intraduodenally; format: functional; conditions: intraduodenal
# Cavia porcellus [36] = organism: Cavia porcellus; assay: Dose of antagonist that produces 50% inhibition of ovalbumin-induced bronchoconstriction; format: functional
# [37] = biological target: T1, Polyunsaturated fatty acid 5-lipoxygenase; assay: Concentration that produces 50% inhibition of A-23187-stimulated radiolabeled 5-HETE and TXB2 synthesis by PMN 5-lipoxygenase; format: functional
# Rattus norvegicus [38] = assay: Antiinflammatory effect was studied in a rat carrageenan paw edema (CE) assay at a dose of 50 mg/kg; format: functional
# Cavia porcellus [39] = assay: Tested for the inhibition of LTD4-induced broncho constriction in Guinea pig; injected intraduodenally at a dose of 25 mg/kg; format: functional; conditions: route intraduodenal
compound,measurement,setting,value
CONC(=O)c1cccc(OCc2ccc3ccccc3n2)c1,inhibition in vivo at 3 mg/kg,Cavia porcellus [1],64%
same,inhibition in vivo at 25 mg/kg,Cavia porcellus [2],93%
same,inhibition in vivo at 3 mg/kg,Cavia porcellus [3],-6%
same,inhibition in vivo at 10 mg/kg,Cavia porcellus [4],84%
same,inhibition in vivo at 25 mg/kg,Cavia porcellus [5],< 77%
same,inhibition in vivo at 10 mg/kg,Cavia porcellus [6],9%
same,inhibition in vivo at 25 mg/kg,Cavia porcellus [7],< -2%
same,inhibition in vivo at 25 mg/kg,Cavia porcellus [8],< 72%
Cc1ccc(S(=O)(=O)NC(=O)c2cccc(OCc3ccc4ccccc4n3)c2)cc1,pKb,Cavia porcellus [9],7.78
same,inhibition in vivo at 25 mg/kg,Cavia porcellus [10],91%
same,ED50,Cavia porcellus [11],0.4 mg/kg
same,inhibition in vivo at 25 mg/kg,Cavia porcellus [12],< 80%
same,inhibition in vivo at 3 mg/kg,Cavia porcellus [13],83%
same,inhibition in vivo at 3 mg/kg,Cavia porcellus [14],86%
same,inhibition in vivo at 10 mg/kg,Cavia porcellus [15],4%
same,inhibition in vivo at 25 mg/kg,Cavia porcellus [16],< 57%
same,ED50,Cavia porcellus [17],2.02 mg/kg
same,IC50,[18],6.2 µM
same,IC50,Cyclooxygenase,13.4 µM
same,inhibition in vivo at 50 mg/kg,Rattus norvegicus [19],< 69%
O=C(Cc1cccc(OCc2ccc3ccccc3n2)c1)NOCc1ccccc1,inhibition in vivo at 25 mg/kg,Cavia porcellus [20],< 26%
same,inhibition in vivo at 25 mg/kg,Cavia porcellus [10],< 67%
same,inhibition in vivo at 3 mg/kg,Cavia porcellus [21],18%
Cc1ccc(S(=O)(=O)NC(=O)c2cccc(OCc3ncc4ccccc4n3)c2)cc1,inhibition in vivo at 25 mg/kg,Cavia porcellus [10],99%
same,inhibition in vivo at 10 mg/kg,Cavia porcellus [22],50%
same,inhibition in vivo at 10 mg/kg,Cavia porcellus [23],66%
same,inhibition in vivo at 25 mg/kg,Cavia porcellus [24],85%
same,inhibition in vivo at 3 mg/kg,Cavia porcellus [25],60%
CCCc1c(OCCCCc2nnn[nH]2)ccc(C(C)=O)c1O [TOMELUKAST],pKb,Cavia porcellus [26],6.55
same,ED50,Cavia porcellus [27],6 mg/kg
same,ED50,Cavia porcellus [28],32 mg/kg
same,ED50,Cavia porcellus [29],38 mg/kg
same,ED50,Cavia porcellus [30],19 mg/kg
c1cc(Cc2nnn[nH]2)cc(OCc2ccc3ccccc3n2)c1,inhibition in vivo at 25 mg/kg,Cavia porcellus [10],< 99%
same,inhibition in vivo at 3 mg/kg,Cavia porcellus [31],50%
same,ED50,Cavia porcellus [11],3 mg/kg
same,inhibition in vivo at 25 mg/kg,Cavia porcellus [32],< 31%
same,inhibition in vivo at 3 mg/kg,Cavia porcellus [33],53%
same,inhibition in vivo at 10 mg/kg,Cavia porcellus [34],49%
same,inhibition in vivo at 25 mg/kg,Cavia porcellus [24],< 94%
same,ED50,Cavia porcellus [35],3 mg/kg
same,ED50,Cavia porcellus [36],6.7 mg/kg
same,IC50,[37],3.9 µM
same,inhibition in vivo at 50 mg/kg,Rattus norvegicus [38],30%
Cc1ccc(S(=O)(=O)NC(=O)c2ccc(OCc3ccc4ccccc4n3)cc2)cc1,inhibition in vivo at 25 mg/kg,Cavia porcellus [39],< -9%
